This note sets out measurements from PubChem BioAssay AID256 (DTP/NCI, 2004).

The assay has as its system CD2F1 mice, L1210 leukemia ip, survival T/C. Briefly: NCI In Vivo Anticancer Drug Screen. Data for tumor model L1210 Leukemia (intraperitoneal) in CD2F1 (CDF1) mice. As to conditions: higher = longer survival. In a few lines:
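Transplantable tumor in mice; compound-treated vs vehicle-treated groups. Read-out = treated/control ratio of the measured endpoint.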

Where [1] appears, read: endpoint: mean survival time, dose: 100.0 mg/kg/injection, schedule: Q04DX003 (ip), vehicle: saline with Tween-80.
Setting [2] is: endpoint: mean survival time, dose: 200.0 mg/kg/injection, schedule: Q04DX003 (ip), vehicle: saline with Tween-80.
The mark [3] stands for this setting: endpoint: mean survival time, dose: 400.0 mg/kg/injection, schedule: Q04DX003 (ip), vehicle: saline with Tween-80.
The mark [4] stands for this setting: endpoint: mean survival time, dose: 100.0 mg/kg/injection, schedule: Q04DX002 (ip), vehicle: saline with Tween-80.
The mark [5] stands for this setting: endpoint: mean survival time, dose: 200.0 mg/kg/injection, schedule: Q04DX002 (ip), vehicle: saline with Tween-80.
[6] abbreviates: endpoint: mean survival time, dose: 12.5 mg/kg/injection, schedule: Q01DX009 (ip), vehicle: water.
[7] abbreviates: endpoint: mean survival time, dose: 25.0 mg/kg/injection, schedule: Q01DX009 (ip), vehicle: water.
The mark [8] stands for this setting: endpoint: mean survival time, dose: 50.0 mg/kg/injection, schedule: Q01DX009 (ip), vehicle: water.
Setting [9] is: endpoint: mean survival time, dose: 100.0 mg/kg/injection, schedule: Q01DX009 (ip), vehicle: water.
[10] abbreviates: endpoint: mean survival time, dose: 200.0 mg/kg/injection, schedule: Q01DX009 (ip), vehicle: water.
The mark [11] stands for this setting: endpoint: mean survival time, dose: 100.0 mg/kg/injection, schedule: Q01DX001 (ip), vehicle: saline with Tween-80.

Where “and” joins values, the source holds several entries; their conditions need not be identical. Identical values can stand only once. Inconclusive results and toxic doses are left out.

Turning to `Cc1cc(N(CCOS(C)(=O)=O)CCOS(C)(=O)=O)ccc1N=O`, the T/C (endpoint: mean survival time, dose: 0.25 mg/kg/injection, schedule: Q01DX015 (ip), vehicle: saline) was 119 % of control; the T/C (endpoint: mean survival time, dose: 0.5 mg/kg/injection, schedule: Q01DX015 (ip), vehicle: saline) is 121 % of control; the T/C (endpoint: mean survival time, dose: 1.0 mg/kg/injection, schedule: Q01DX010 (ip), vehicle: saline) is 101 % of control; the T/C (endpoint: mean survival time, dose: 1.0 mg/kg/injection, schedule: Q01DX015 (ip), vehicle: saline) is 116 % of control; the T/C (endpoint: mean survival time, dose: 2.0 mg/kg/injection, schedule: Q01DX015 (ip), vehicle: saline) is 97 % of control.
With `CCCCCCCCCCCSSCCCCCCCCCCC`, the T/C is 101 % of control (endpoint: mean survival time, dose: 100.0 mg/kg/injection, schedule: Q01DX009 (ip), vehicle: other); 100 % of control (endpoint: mean survival time, dose: 200.0 mg/kg/injection, schedule: Q01DX009 (ip), vehicle: other); 111 % of control (endpoint: mean survival time, dose: 400.0 mg/kg/injection, schedule: Q01DX009 (ip), vehicle: other).
As to `CCOC(=O)CC1OCCO1`, the T/C under setting [1] was 98 % of control, the T/C under setting [2] is 103 % of control and the T/C under setting [3] is 101 % of control.
On to `CN(C)N=Nc1ccc(S(N)(=O)=O)cc1C(N)=O`, for which the T/C (endpoint: mean survival time, dose: 18.8 mg/kg/injection, schedule: Q01DX009 (ip), vehicle: Klucel (hydroxypropylcellulose) (HPC)) is 96 % of control and 106 % of control; the T/C (endpoint: mean survival time, dose: 37.5 mg/kg/injection, schedule: Q01DX009 (ip), vehicle: Klucel (hydroxypropylcellulose) (HPC)) was 98 % of control and 110 % of control; the T/C (endpoint: mean survival time, dose: 75.0 mg/kg/injection, schedule: Q01DX009 (ip), vehicle: Klucel (hydroxypropylcellulose) (HPC)) is 120 % of control; the T/C (endpoint: mean survival time, dose: 300.0 mg/kg/injection, schedule: Q01DX009 (ip), vehicle: Klucel (hydroxypropylcellulose) (HPC)) is 117 % of control and 111 % of control.
`O=c1c2cccc3cccc(c4n1NC=c1ccccc1=4)c32`: the T/C (endpoint: mean survival time, dose: 25.0 mg/kg/injection, schedule: Q04DX002 (ip), vehicle: saline with Tween-80) is 100 % of control; the T/C (endpoint: mean survival time, dose: 50.0 mg/kg/injection, schedule: Q04DX002 (ip), vehicle: saline with Tween-80) was 92 % of control; the T/C under setting [4] is 96 % of control; the T/C under setting [5] was 96 % of control.
Regarding `OCC1OC(n2cnc3c([Se]Cc4ccccn4)ncnc32)C(O)C1O` (stereo unspecified), the T/C is, setting by setting: (endpoint: mean survival time, dose: 3.12 mg/kg/injection, schedule: Q01DX009 (ip), vehicle: saline) 102 % of control; (endpoint: mean survival time, dose: 6.25 mg/kg/injection, schedule: Q01DX009 (ip), vehicle: saline) 113 % of control; (endpoint: mean survival time, dose: 12.5 mg/kg/injection, schedule: Q01DX005 (ip), vehicle: saline) 100 % of control; (endpoint: mean survival time, dose: 12.5 mg/kg/injection, schedule: Q01DX009 (ip), vehicle: saline) 111 % of control.
For the compound `CN(C)C(=O)C(Cc1c[nH]c2ccccc12)NC(=O)c1ccccc1` (stereo unspecified), the T/C is, setting by setting: under setting [4], 95 % of control; under setting [5], 103 % of control; (endpoint: mean survival time, dose: 400.0 mg/kg/injection, schedule: Q04DX002 (ip), vehicle: saline with Tween-80) 98 % of control.
For the compound `O=C1CCC(C(=O)O)=NN1`, the T/C reads like this: under setting [6], 96 % of control; under setting [7], 101 % of control; under setting [8], 93 % of control; under setting [9], 93 % of control; under setting [10], 90 % of control.
For `CC(=O)C1CCC2C3CC=C4CC(n5cc(C)c(=O)[nH]c5=O)CCC4(C)C3CCC12C` (stereo unspecified), the T/C by setting is: (endpoint: mean survival time, dose: 12.5 mg/kg/injection, schedule: Q04DX003 (ip), vehicle: Klucel (hydroxypropylcellulose) (HPC)) 90 % of control; (endpoint: mean survival time, dose: 25.0 mg/kg/injection, schedule: Q01DX001 (ip), vehicle: Klucel (hydroxypropylcellulose) (HPC)) 95 % of control; (endpoint: mean survival time, dose: 25.0 mg/kg/injection, schedule: Q04DX003 (ip), vehicle: Klucel (hydroxypropylcellulose) (HPC)) 96 % of control; (endpoint: mean survival time, dose: 50.0 mg/kg/injection, schedule: Q01DX001 (ip), vehicle: Klucel (hydroxypropylcellulose) (HPC)) 100 % of control; (endpoint: mean survival time, dose: 50.0 mg/kg/injection, schedule: Q04DX003 (ip), vehicle: Klucel (hydroxypropylcellulose) (HPC)) 94 % of control; (endpoint: mean survival time, dose: 100.0 mg/kg/injection, schedule: Q01DX001 (ip), vehicle: Klucel (hydroxypropylcellulose) (HPC)) 88 % of control. Also, the T/C reads like this: (endpoint: mean survival time, dose: 100.0 mg/kg/injection, schedule: Q04DX003 (ip), vehicle: Klucel (hydroxypropylcellulose) (HPC)) 100 % of control; (endpoint: mean survival time, dose: 200.0 mg/kg/injection, schedule: Q01DX001 (ip), vehicle: Klucel (hydroxypropylcellulose) (HPC)) 91 % of control; (endpoint: mean survival time, dose: 200.0 mg/kg/injection, schedule: Q04DX003 (ip), vehicle: Klucel (hydroxypropylcellulose) (HPC)) 102 % of control; (endpoint: mean survival time, dose: 400.0 mg/kg/injection, schedule: Q01DX001 (ip), vehicle: Klucel (hydroxypropylcellulose) (HPC)) 95 % of control.
On to `SCc1nc2ccccc2[nH]1`, for which the T/C reads like this: under setting [11], 96 % of control; (endpoint: mean survival time, dose: 200.0 mg/kg/injection, schedule: Q01DX001 (ip), vehicle: saline with Tween-80) 97 % of control.
Take `O=NNc1cnccn1`: the T/C was 112 % of control (endpoint: median survival time, dose: 3.12 mg/kg/injection, schedule: Q01DX009 (ip), vehicle: water); 113 % of control and 109 % of control (endpoint: median survival time, dose: 6.25 mg/kg/injection, schedule: Q01DX009 (ip), vehicle: water); 121 % of control and 107 % of control (endpoint: median survival time, dose: 8.6 mg/kg/injection, schedule: Q01DX009 (ip), vehicle: water); 121 % of control and 124 % of control (endpoint: median survival time, dose: 11.0 mg/kg/injection, schedule: Q01DX009 (ip), vehicle: water); 120 % of control and 123 % of control (endpoint: median survival time, dose: 12.5 mg/kg/injection, schedule: Q01DX009 (ip), vehicle: water); 116 % of control and 112 % of control (endpoint: median survival time, dose: 14.4 mg/kg/injection, schedule: Q01DX009 (ip), vehicle: water). For the same compound, the T/C (endpoint: median survival time, dose: 24.0 mg/kg/injection, schedule: Q01DX009 (ip), vehicle: water) was 124 % of control; the T/C (endpoint: median survival time, dose: 38.0 mg/kg/injection, schedule: Q01DX009 (ip), vehicle: water) is 221 % of control and 223 % of control; the T/C (endpoint: median survival time, dose: 40.0 mg/kg/injection, schedule: Q01DX009 (ip), vehicle: water) is 183 % of control; the T/C (endpoint: median survival time, dose: 50.0 mg/kg/injection, schedule: Q01DX009 (ip), vehicle: water) is 121 % of control; the T/C (endpoint: median survival time, dose: 100.0 mg/kg/injection, schedule: Q01DX009 (ip), vehicle: water) was 92 % of control.
With `CC1(C)N=C(N)N=C(N)N1c1cccc(OCCCC#N)c1`, the T/C by setting is: (endpoint: mean survival time, dose: 25.0 mg/kg/injection, schedule: Q01DX001 (ip), vehicle: saline) 88 % of control; (endpoint: mean survival time, dose: 50.0 mg/kg/injection, schedule: Q01DX001 (ip), vehicle: saline) 106 % of control; (endpoint: mean survival time, dose: 100.0 mg/kg/injection, schedule: Q01DX001 (ip), vehicle: saline) 101 % of control.
Consider `Cc1ccnc(-n2c(N)cc(=O)[nH]c2=S)c1`, for which the T/C is, setting by setting: under setting [1], 97 % of control; under setting [2], 97 % of control; under setting [3], 96 % of control.
Regarding `C/C(=N/N(C)C)c1ccc2ccccc2c1`, the T/C by setting is: (endpoint: mean survival time, dose: 12.5 mg/kg/injection, schedule: Q01DX009 (ip), vehicle: saline with Tween-80) 97 % of control; (endpoint: mean survival time, dose: 25.0 mg/kg/injection, schedule: Q01DX001 (ip), vehicle: saline with Tween-80) 103 % of control; (endpoint: mean survival time, dose: 25.0 mg/kg/injection, schedule: Q01DX009 (ip), vehicle: saline with Tween-80) 95 % of control; (endpoint: mean survival time, dose: 50.0 mg/kg/injection, schedule: Q01DX001 (ip), vehicle: saline with Tween-80) 97 % of control; under setting [11], 103 % of control.
Consider `COc1cccc(C(=O)c2ccncc2C)c1OC`, for which the T/C by setting is: under setting [6], 89 % of control; under setting [7], 93 % of control; under setting [8], 93 % of control; under setting [9], 93 % of control; under setting [10], 96 % of control.
For `c1cncc(-c2nnc(-c3cccnc3)o2)c1`, the T/C by setting is: (endpoint: mean survival time, dose: 1.56 mg/kg/injection, schedule: Q04DX002 (ip), vehicle: saline with Tween-80) 101 % of control; (endpoint: mean survival time, dose: 3.13 mg/kg/injection, schedule: Q04DX002 (ip), vehicle: saline with Tween-80) 104 % of control; (endpoint: mean survival time, dose: 6.25 mg/kg/injection, schedule: Q04DX002 (ip), vehicle: saline with Tween-80) 104 % of control; (endpoint: mean survival time, dose: 12.5 mg/kg/injection, schedule: Q04DX002 (ip), vehicle: saline with Tween-80) 104 % of control; under setting [4], 87 % of control; under setting [5], 87 % of control.
